{"source": "paper PMC11013143", "about": "“4-Chloroisocoumarins as Chlamydial Protease Inhibitors and Anti-Chlamydial Agents” (Molecules, 2024)", "key": {"[1]": {"molecular_target": "T1, CtHtrA (Chlamydia trachomatis serovar D, UniProt P18584)", "T1 construct": "made in house; host or cells: E. coli BL21(DE3), pET22b", "T1 sequence (P18584 17-497)": "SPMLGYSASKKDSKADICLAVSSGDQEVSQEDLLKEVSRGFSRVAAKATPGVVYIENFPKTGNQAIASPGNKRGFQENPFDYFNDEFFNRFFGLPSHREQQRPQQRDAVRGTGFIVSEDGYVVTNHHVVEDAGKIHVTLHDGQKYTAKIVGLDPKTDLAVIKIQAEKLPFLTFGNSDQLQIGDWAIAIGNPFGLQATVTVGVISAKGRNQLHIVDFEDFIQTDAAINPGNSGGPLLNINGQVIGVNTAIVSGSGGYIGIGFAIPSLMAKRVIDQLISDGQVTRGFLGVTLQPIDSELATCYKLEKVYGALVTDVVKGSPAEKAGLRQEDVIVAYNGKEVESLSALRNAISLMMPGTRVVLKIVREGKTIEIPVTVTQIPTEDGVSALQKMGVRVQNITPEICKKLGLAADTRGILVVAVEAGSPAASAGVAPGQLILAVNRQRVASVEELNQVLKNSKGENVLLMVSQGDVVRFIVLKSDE", "assay": "CtHtrA protease inhibition assay", "format": "biochemical", "conditions": "for IC50: IC50 against CtHtrA; for Relative Potency against CtHtrA: [IC50 of control]/[IC50 test compound]", "protocol": "The inhibitory activity of compounds 2a–g against CtHtrA was evaluated. […] As these compounds are reportedly covalent inhibitors of serine proteases, a true IC50 is unable to be calculated. Instead, the residual activity of the protease is monitored over time in response to a range of compound concentrations, and an IC50 value is interpolated from a dose–response curve (see Figures S2–S4 and Tables S1 and S2). This IC50 value is then compared to a positive control (JO146 was used for 2a–g, and 2g was used for 6a–h), giving the ‘relative potency’. This is the established method for assessing CtHtrA inhibitory potency. […] This effect may be due to depth restrictions within the S1 subpocket, as kinetic studies on the rates of protease inhibition in HLE were reduced by larger C-3 alkoxy substituents. Chain branching (iso-propyl and sec-butyl substituents) increased the activity, resulting in a 1.4-fold increase for 2e over 2b and a 2.8-fold improvement for 2g over 2c.\nCtHtrA was expressed using an procedure adapted from the literature. Recombinant E. coli BL21(DE3) pET22b was grown in LB media containing 100 ug/mL ampicillin to an OD600 of 0.5-0.6 in 5 × 400 mL batches at 37 °C. Isopropyl β-D-1-thioglactopyranoside (1 M, 400 µL, 1 mM final concentration) was added to each flask and incubated at 30 °C with shaking at 150 rpm for an additional 2.5 h. The culture was centrifuged at 4000× g for 15 min at 4 °C, and the cell pellet was harvested and resuspended in lysis buffer (50 mM phosphate, 10 mM imidazole, 500 mM NaCl, 0.1% Triton X-100, 10% glycerol). Lysozyme was added to the suspended cells and was sonicated in 15 cycles of 15 s, with one minute between cycles while maintaining 4 °C, and then centrifuged at 8000× g for 20 min to remove any debris, retaining the supernatant for protein purification.\nTALON® metal affinity resin (Takara cat no. 635652, 5 mL) was added to each lysate tube and washed sequentially with lysis buffer (2 × 45 mL) and stringency buffer (4 × 45 mL) and then eluted with elution buffer (2 × 5 mL), allowing incubations at 4 °C for 20 min per wash, and centrifuging at 2500× g and 4 °C between washes to pellet the resin. The eluates were dialyzed in Tris buffer (pH 7.0, 50 mM, 4 L) with magnesium chloride (20 mM) at 4 °C five times over 24 h, with a minimum of three hours per dialysis change. Protein expression and isolation were confirmed with SDS-PAGE Coomassie stained gel, which was examined for the band at the correct size, and a BCA assay to confirm purified protein concentration prior to use.\nCtHtrA was added to 25 wells in a black 96-well plate (40–80 µL, 10 µL increments), to which Tris-HCl buffer (50 mM, pH 7.0 with 20 mM MgCl2) was added to bring the total volume to 90 µL for 10 wells and 85 µL for the remaining 15. JO146 (10 µM, 5 µL) was added to 5 wells and JO146 (1 µM, 5 µL) was added to another 5 wells, with DMSO (5 µL) being added to the remaining 5 as a control. The plate was incubated at 37 °C for 10 min before substrate (MCA-ENLHLPLPIIFK-DNP, 10 µL, 1 mg/mL, 50% isopropanol in buffer) was added and analyzed in a TECAN Infinite Pro M200 plate reader with an excitation wavelength of 340 nm and fluorescence measured at 405 nm with four reads per well at 60 s intervals. A minimum volume of CtHtrA granting a fluorescence change of 300 min^−1 was used for subsequent assay.\nThe determined appropriate volume of CtHtrA in buffer was added to a 96-well non-transparent black plate and diluted to 85 µL with buffer solution. Drug or control (5 µL) at a maximum of 20% DMSO/80% buffer was added to the appropriate well with DMSO controls, and the plate was incubated for 10 min to allow activation by the protein. MCA-ENLHLPLPIIFK-DNP (Mimotopes, Australia, 1 mg/mL, 10 µL) was added and immediately monitored on a TECAN M200 Infinite plate reader at 37 °C every 60 s for 30 min, using the same wavelengths as for the activity evaluation. […]"}, "[2]": {"molecular_target": "T2, Human Leukocyte Elastase (HLE) (Homo sapiens, UniProt P08246)", "T2 construct": "purchased Athens Research and Technology 16-15-051200", "T2 sequence (P08246 30-247 limits assumed)": "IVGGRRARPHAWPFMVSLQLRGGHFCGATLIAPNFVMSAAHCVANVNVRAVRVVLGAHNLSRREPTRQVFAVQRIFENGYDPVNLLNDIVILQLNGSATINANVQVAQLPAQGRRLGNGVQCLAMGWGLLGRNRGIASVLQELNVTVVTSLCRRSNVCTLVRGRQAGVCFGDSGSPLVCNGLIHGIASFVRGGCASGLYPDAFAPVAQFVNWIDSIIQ", "assay": "HLE protease inhibition assay", "format": "biochemical", "protocol": "Elastase was purchased from Athens Research and Technology (Cat No. 16-15-051200). Elastase (100 µg) was dissolved in Tris buffer (100 mM Tris, 20 mM CaCl2, pH 8.1, 3.14 mL), giving a concentration of 1.117 µM, and 25 µL was added to each well containing the respective inhibitor. The plate was incubated at 37 °C for 15 min.\nN-Suc-AAA-pNA (Sigma Aldrich, Bayswater, Australia, S4760, 100 µL, 1 mg/mL, […]) was added to each well, and the absorbance was monitored every six minutes at 405 nm. The rate of change of absorbance was used as a comparison to controls to determine the % inhibition of protein in Microsoft Excel^TM (v2402), and these values were exported to GraphPad Prism (v8.0.1) for IC50 calculation."}}, "data": [{"smiles": "CCC(C)Oc1oc(=O)c2cc(OC)ccc2c1Cl", "note": "(racemic) [Compound 6h, (±)-7-Methoxy-3-sec-butoxy-4-chloroisocoumarin]", "values": [{"measurement": "IC50", "setting": "[1]; Table S2, Batch 5, control 2g", "value": 152, "unit": "µM"}, {"measurement": "Relative Potency against CtHtrA", "setting": "[1]; control 2g", "value": 0.184}]}, {"smiles": "CCC(C)Oc1oc(=O)c2cc(I)ccc2c1Cl", "note": "(racemic) [Compound 6e, (±)-3-sec-Butoxy-4-chloro-7-iodoisocoumarin]", "values": [{"measurement": "IC50 against CtHtrA", "setting": "[1]; Table S2, Batch 4, control 2g", "value": "Not active"}, {"measurement": "Relative Potency against CtHtrA", "setting": "[1]; control 2g", "value": "<0.001"}]}, {"smiles": "CCC(C)Oc1oc(=O)c2ccccc2c1Cl", "note": "(racemic) [Compound 2g, (±)-3-sec-Butoxy-4-chloroisocoumarin]", "values": [{"measurement": "Relative Selectivity", "setting": "[1]; (relative CtHtrA potency)/(relative HLE potency)", "value": 14.6}, {"measurement": "IC50", "setting": "[1]; Table S2, Batch 2, control JO146", "value": 9.11, "unit": "µM"}, {"measurement": "IC50", "setting": "[1]; Table S2, Batch 3, control 2g", "value": 34.9, "unit": "µM"}, {"measurement": "IC50", "setting": "[1]; Table S2, Batch 4, control 2g", "value": 32.3, "unit": "µM"}, {"measurement": "IC50", "setting": "[1]; Table S2, Batch 5, control 2g", "value": 28, "unit": "µM"}, {"measurement": "Relative Potency against CtHtrA", "setting": "[1]; control JO146", "value": 6.58}, {"measurement": "IC50", "setting": "[2]; Table S1, variable slope four parameter fit, read-out: IC50 against HLE", "value": 1.81, "unit": "µM"}, {"measurement": "Relative Potency against HLE", "setting": "[2]; [IC50 of JO146]/[IC50 test compound]", "value": 0.451}]}, {"smiles": "CCC(C)Oc1oc(=O)c2cc(N)ccc2c1Cl", "note": "(racemic) [Compound 6a, (±)-7-Amino-4-chloro-3-sec-butoxyisocoumarin]", "values": [{"measurement": "IC50", "setting": "[1]; Table S2, Batch 3, control 2g", "value": 107, "unit": "µM"}, {"measurement": "Relative Potency against CtHtrA", "setting": "[1]; control 2g", "value": 0.326}]}, {"smiles": "CCC(C)Oc1oc(=O)c2cc(NC(=O)C(F)(F)F)ccc2c1Cl", "note": "(racemic) [Compound 6d, (±)-N-(4-chloro-1-oxo-3-sec-butoxy-isochromen-7-yl)-2,2,2-trifluoroacetamide]", "values": [{"measurement": "IC50 against CtHtrA", "setting": "[1]; Table S2, Batch 4, control 2g", "value": "Not active"}, {"measurement": "Relative Potency against CtHtrA", "setting": "[1]; control 2g", "value": "<0.001"}, {"measurement": "melting point", "value": "189 to 190", "unit": "°C"}]}, {"smiles": "CCC(C)Oc1oc(=O)c2cc(N(C)C)ccc2c1Cl", "note": "(racemic) [Compound 6b, (±)-7-(Dimethylamino)-3-sec-butoxy-4-chloroisocoumarin]", "values": [{"measurement": "IC50", "setting": "[1]; Table S2, Batch 3, control 2g", "value": 309, "unit": "µM"}, {"measurement": "Relative Potency against CtHtrA", "setting": "[1]; control 2g", "value": 0.113}]}, {"smiles": "CCC(C)Oc1oc(=O)c2cc(NC(C)=O)ccc2c1Cl", "note": "(racemic) [Compound 6c, (±)-N-(4-Chloro-1-oxo-3-sec-butoxy-isochromen-7-yl)acetamide]", "values": [{"measurement": "IC50", "setting": "[1]; Table S2, Batch 3, control 2g", "value": 221, "unit": "µM"}, {"measurement": "Relative Potency against CtHtrA", "setting": "[1]; control 2g", "value": 0.158}]}]}
